The text below walks through data of US5760213A, “Immunoactivating agent” (Tayca Corporation, priority 1995, dated 1998).

Data set [1] deals with myeloma cell strain NS-1/Z. As to the kind of experiment: Determination of Cytotoxic T Cell (CTL) Inducibility. In kind it is in vivo, BALB/c mouse (target cells); C3H mice (effector cells). The settings on record: 20 mg/kg/day, subcutaneous, four times, relative to physiological saline control. The method, then:
(§1) First, 1 wt % aqueous solutions of the respective polysaccharides obtained in the above Preparation Examples were prepared. A cationic ion exchange resin was added to each solution to convert the counter ions of carboxyl group of glucuronic acid residue in the polysaccharide into hydrogen ions, and then the solution was neutralized with sodium hydroxide to replace the counter ions with sodium ions, then passed through a 0.2 μm-opening membrane filter and freeze-dried. The resulting polysaccharide preparations were subjected to the following tests.
The following test was conducted on the C3H mice and BALB/c mice which are different in H-2 haplotype.
The spleen lymphocytes (2×10^7) of the BALB/c mice were immunized in the abdominal cavities of the C3H mice (4 mice per group: N=4). Each of the test specimens shown in Table 5 was given subcutaneously to the back of each of the said C3H mice at a dose of 50 mg/kg or 20 mg/kg, once a day, four times in all, from the day before immunization till 2 days after immunization. As control, physiological saline was used instead of the test specimens. After 9 days, the spleen lymphocyte suspension was collected from the C3H mice. This lymphocyte suspension contained the cytotoxic T cells (hereinafter referred to as effector cells and abbreviated as E). Then, 10^4 cells of myeloma cell strain NS-1/Z (hereinafter abbreviated as T) derived from the BALB/c mouse into which β-galactosidase (β-gal) of Escherichia coli had been introduced, were mixed as target cells with the effector cells so that the E/T ratio would become 30, 60 or 120, and the mixture was kept in 0.2 ml of a medium RPMI-1640 at 37° C. for 4 hours. The activity of β-gal released into the supernatant by destruction of the target cells was measured, and the cytotoxicity by CTL was calculated from the following equation. [formula] A: released β-gal activity B: naturally released β-gal activity (enzyme release observed when no effector cells are present)
C: overall β-gal activity (T used is dissolved in 0.0425% Triton-X100 and the overall enzyme activity is measured.) [formula]

Another data set relates to C3H/He mice. As to the kind of experiment: Observation for anaphylaxis-like reaction and sudden death in MDP-primed mice. To be noted: 100 μg/0.2 ml intravenously, 4 hours after MDP. In kind it is in vivo. The method, then:
as §1
(§2) These mice were left under observation for anaphylaxis-like reaction and sudden death. After 90 minutes from the injection, blood was collected from the surviving mice to determine TNF and IL-6 activities in the serum. TNF activity was calculated on the basis of the ratio of activity of the actinomycin D-treated L-929 cells to that of rHuTNF (human recombination TNF) used as control, with the killing action of the said L-929 cells being taken as index, and indicated by ng/ml. In the case of IL-6 activity, the IL-6 dependent MH60.BSF2 cell growth stimulating action was taken as index, and the IL-6 activity was calculated on the basis of the calibration curves obtained from the test of IL-6 and control rHuIL-6, and indicated by U/ml.

The subject of the next data set is TNF. Nature of the data set: Measurement of Tumor Necrosis Factor (TNF) inducibility. Type of data set: in vivo. To be noted: serum 90 minutes after injection, 100 μg/0.2 ml intravenously, MDP-primed C3H/He mice; average value ± standard deviation. The method, then:
as §1, §2

A further data set concerns IL-6. As to the kind of experiment: Measurement of Interleukin (IL-6) inducibility. Type of data set: in vivo. The settings on record: serum 90 minutes after injection, 100 μg/0.2 ml intravenously, MDP-primed C3H/He mice; average value ± standard deviation. Here is the method:
as §1, §2

The subject of the next data set is rats. The settings on record: oral administration to rats, cited from earlier work.
Another data set deals with Sarcoma 180 cancer cells. Nature of the data set: Determination of Cancer Growth Inhibitory Effect (Sarcoma 180 solid cancer in ICR mice). Type of data set: in vivo. To be noted: Sarcoma 180 subcutaneous graft, 30 mg/kg per day intraperitoneally for 10 days, tumor weight after 5 weeks. The method, then:
as §1

For the compound Schizophyllan, the “Immunoactivating activity, E/T = 30” value in data set [1] (E/T = 30) is recorded as 5.5. The “Immunoactivating activity, E/T = 60” value in data set [1] (E/T = 60) came out at 2.0. Also, the “Immunoactivating activity, E/T = 120” value in data set [1] (E/T = 120) came to 1.7. Moreover, in the data set with C3H/He mice, the Anaphylaxis-like reaction is listed as 0/3 and the Sudden death is on record as 0/3. Besides, in the data set with TNF, the TNF worked out at 0 ± 0 ng/mL. Further, the IL-6 in the data set with IL-6 is given as 14.1 ± 2.2 U/ml.

`O=P1(N(CCCl)CCCl)NCCCO1` (stereo not shown) [Cyclophosphide]: in the data set with rats (female), the “LD50 (female)” value is given as 118 mg/kg. The “LD50 (male)” value with rats (male) is 100 mg/kg.

Turning to Lentinan, the “Cancer cell growth inhibition percentage” value in the data set with Sarcoma 180 cancer cells turned out to be 100%.
